Data: patent US12297182B2, “Compositions comprising an urolithin compound” (Amazentis SA, priority 2015, dated 2025)
Blank lines part the entries; values can stand above or below the compound they belong to.

Columns and labels:
[1] = parameters: species or system male Sprague-Dawley rats; conditions: rat, in vivo, po
Protocol: The solutions for gavage were prepared as follows: 35 mg of urolithin A powder was diluted in 7 ml of 15% DMSO, 0.5% methyl cellulose/0.25% Tween 80 in water, resulting in a 5 mg/ml fine suspension. The DMSO was obtained from BDH, methyl cellulose was obtained from Sigma, and Tween 80 was obtained from Sigma-Aldrich.
Blood was collected from the rats by jugular vein cannulation at different time points, and urolithin A was quantified in the plasma to determine its pharmacokinetic profile following oral gavage of Sample #1, Sample #2, and Sample #3. The study was repeated on three rats for each sample. […]

[2] = test system: myotubes; conditions: in vitro; cited from earlier work
[3] = test system: 22 month old C57BL/6J old mice; experiment: Treadmill endurance test in old mice fed a high protein diet with or without Urolithin A; type: in vivo; conditions: Urolithin A 50 mg/kg/day in high protein diet, 6 weeks, normalized over basal values, compared to mice receiving only a protein diet; no exercise regimen
Description: To mimic age related muscle loss in humans, an experimental animal model was setup in old mice. The control diet designed to be used in the experimental study was a high protein diet that would be analogous to a clinically recommended high protein diet in elderly humans at risk of muscle loss. The diet was formulated to improve the performance of old animals that consume them. The high protein diet has a better balance of essential nutrients (amino acids, vitamins and minerals) and is supplemented with 200 gr casein per kg of diet, instead of 140 gr of casein in the regular maintenance diet (Reeves PG, J. Nutr. 1997, 127(5) 838S-841S). Casein proteins are nutritionally complete, highly digestible proteins with high amino scores that contain all amino acids in amounts sufficient to support maintenance of all body proteins. Urolithin A was admixed to the high protein diet at a level of 0.57 g per kg of diet. Both the diets were isocaloric. 22 month old C57BL/6J old mice that would be equivalent to a 65 yr to 75 yr old elderly human were treated with either the high protein diet alone or a high protein diet containing Urolithin A. Both the diets contained in addition to the casein protein, essential nutrient for optimal muscle function such as L-cysteine and vitamins and mineral mix. The level of Urolithin A in the diet results in a dose of 50 mg/kg/day delivered to mice. […]

relative increase in the AUC ([1]; male, Sprague-Dawley, 25 mg/kg): 26%
Structure (SMILES): O=c1oc2cc(O)ccc2c2ccc(O)cc12 [Sample #3, Urolithin A]

fold increase in the Cmax ([1]; male, Sprague-Dawley, 25 mg/kg): 2.16 fold | relative increase in the AUC ([1]; male, Sprague-Dawley, 25 mg/kg): 28% | relative increase in the Cmax ([1]; male, Sprague-Dawley, 25 mg/kg): 116%
Structure (SMILES): O=c1oc2cc(O)ccc2c2ccc(O)cc12 [Sample #2, Urolithin A]

Structure (SMILES): O=c1oc2cc(O)ccc2c2ccccc12 [Urolithin B]
effect on mean diameter of myotubes [2]: increased

bioavailability (in words) [1]: increase in bioavailability
Structure (SMILES): O=c1oc2cc(O)ccc2c2ccc(O)cc12 [Urolithin A]
increase in running distance [3]: 42% | increase in running time [3]: 28%
